Source: publication PMC12366525, “Characterization of allosteric modulators that disrupt androgen receptor co-activator protein-protein interactions to alter transactivation–Drug leads for metastatic castration resistant prostate cancer” (SLAS discovery : advancing life sciences R & D, 2023)
Several values for one entry are separate records, joined by “and”; a condition that tells them apart may be missing. Equal values may be shown once.

Tests used:
full length AR = target: T1, full length AR (Homo sapiens, UniProt P10275, T878A); test: PSA-6.1 luciferase reporter assay in C4–2 CRPC cells; assay type: cell-based; settings: C4–2 cells; 50 nM DHT; 24 h; read-out: C4–2 PSA6.1-Luc Reporter IC50
T1 construct: DHT-induced full length AR directed TA; endogenous in cells; host or cells: C4–2 castration resistant prostate cancer cells
T1 sequence (P10275 1-920 T878A): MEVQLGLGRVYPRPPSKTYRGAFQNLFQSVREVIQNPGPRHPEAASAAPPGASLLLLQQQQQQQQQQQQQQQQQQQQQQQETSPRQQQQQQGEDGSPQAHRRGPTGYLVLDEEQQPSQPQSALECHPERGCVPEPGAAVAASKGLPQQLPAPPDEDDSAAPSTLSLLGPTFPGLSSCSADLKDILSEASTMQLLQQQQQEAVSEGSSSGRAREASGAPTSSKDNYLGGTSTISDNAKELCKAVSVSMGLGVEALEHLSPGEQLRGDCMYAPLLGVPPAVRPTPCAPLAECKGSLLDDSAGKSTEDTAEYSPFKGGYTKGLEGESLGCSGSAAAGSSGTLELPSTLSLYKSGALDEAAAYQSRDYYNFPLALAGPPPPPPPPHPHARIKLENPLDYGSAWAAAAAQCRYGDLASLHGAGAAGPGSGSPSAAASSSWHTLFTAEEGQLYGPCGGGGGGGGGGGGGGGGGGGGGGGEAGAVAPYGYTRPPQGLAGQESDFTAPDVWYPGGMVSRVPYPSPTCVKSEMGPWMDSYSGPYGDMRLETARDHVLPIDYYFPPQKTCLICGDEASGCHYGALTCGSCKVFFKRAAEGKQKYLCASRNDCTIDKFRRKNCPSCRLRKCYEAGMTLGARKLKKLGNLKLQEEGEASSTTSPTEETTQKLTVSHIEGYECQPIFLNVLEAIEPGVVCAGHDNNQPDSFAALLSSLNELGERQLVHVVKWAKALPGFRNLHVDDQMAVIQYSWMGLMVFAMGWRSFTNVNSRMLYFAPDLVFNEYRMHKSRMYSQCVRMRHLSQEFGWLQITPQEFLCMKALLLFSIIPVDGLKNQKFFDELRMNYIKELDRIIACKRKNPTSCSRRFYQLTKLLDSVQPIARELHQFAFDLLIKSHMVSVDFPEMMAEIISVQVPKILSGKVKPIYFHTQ
Experimental: The PSA-6.1-Luc luciferase reporter plasmid was provided by Dr. Zhou Wang in the Urology department of the University of Pittsburgh Cancer Institute. The PSA-6.1-Luc reporter is controlled by a fragment of the PSA promoter that contains at least three AREs. The PSA-6.1-Luc plasmid (12 ng/well) was combined with Fugene 6 at a ratio 6:1 in SFM and incubated for 25 min at room temperature before being combined with C4–2 cells suspended in RPMI 1640 media containing 1% penicillin-streptomycin, 1% L-glutamine, and 10% FBS. Transfected cells were then seeded into white opaque 384-well assay plates (Greiner Bio-one, #781080) at 6000 cells per well in a volume of 30 μL and incubated in 5% CO2, 37 °C, and 95% humidity for 24 h.

AR-V7 = target: T2, AR-V7 (Homo sapiens, UniProt P10275); test: PSA6.1 promoter driven luciferase reporter assay in PC3-AR-V7-GFP cells; assay type: cell-based; settings: constitutive, 24 h; read-out: PC-3-ARV7-GFP PSA6.1-Luc Reporter IC50
T2 construct: expressed in transfected cells; host or cells: PC3 cells stably expressing AR-V7-GFP
T2 sequence (P10275 1-644 isoform P10275-3): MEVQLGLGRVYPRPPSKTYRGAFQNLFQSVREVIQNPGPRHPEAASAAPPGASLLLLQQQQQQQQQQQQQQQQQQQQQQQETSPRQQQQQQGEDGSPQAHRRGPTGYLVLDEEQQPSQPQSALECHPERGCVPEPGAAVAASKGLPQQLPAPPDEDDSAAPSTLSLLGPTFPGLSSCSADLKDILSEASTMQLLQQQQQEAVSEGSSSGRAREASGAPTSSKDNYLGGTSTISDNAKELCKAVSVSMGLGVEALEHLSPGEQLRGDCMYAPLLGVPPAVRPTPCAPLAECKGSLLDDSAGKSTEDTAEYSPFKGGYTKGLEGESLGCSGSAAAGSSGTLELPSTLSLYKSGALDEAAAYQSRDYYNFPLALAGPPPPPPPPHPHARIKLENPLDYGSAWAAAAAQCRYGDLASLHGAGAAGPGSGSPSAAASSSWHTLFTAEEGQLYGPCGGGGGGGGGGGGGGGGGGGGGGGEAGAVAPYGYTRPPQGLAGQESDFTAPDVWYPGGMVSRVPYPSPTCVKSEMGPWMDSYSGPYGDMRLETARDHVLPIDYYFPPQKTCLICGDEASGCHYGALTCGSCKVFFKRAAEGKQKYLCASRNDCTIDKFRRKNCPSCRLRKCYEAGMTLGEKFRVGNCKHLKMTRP
Experimental: PC3-AR-V7-GFP cells were bulk transfected with a mixture of Fugene HD and the PSA-6.1-Luc reporter plasmid (20 ng/well) combined at a 3:1 (μL:μg) ratio in Opti-MEM (Gibco, Gaithersburg, MD) that had been incubated for 25 min at RT before being added to PC3-AR-V7-GFP cells that were suspended in RPMI 1640 (Gibco) media containing 1% L-glutamine (Invitrogen), and 10% fetal bovine serum (Gemini Bio-products). Bulk transfected PC3-AR-V7-GFP cells were seeded into white opaque 384-well assay plates (Greiner Bio-one, #781080) at 3000 cells per well in a volume of 40 μL and incubated at 5% CO2, 37 °C, and 95% humidity for 24 h. After 24 h, 5 μL of compounds were transferred to assay wells and the plates were returned to the incubator for an additional 24 h before 25 μL of BrightGlo luciferase reagent (Promega) was added to the wells and the RLU’s were captured on a SpectraMax M5e plate reader (Molecular Devices LLC) as described previously.

PSA = test: Dot blot of PSA secretion by C4–2 cells; assay type: cell-based, human; settings: 10 nM DHT 24 h; 20 μM compound 3 h pre-exposure
Experimental: To determine PSA secretion levels, C4–2 cells were seeded at 1.4 × 10 [5] cells/well in 12-well plates and treated as described above for PSA cell expression experiments. […] 500 μL of conditioned media supernatant was added to the wells of 96-well to Bio-blot apparatus (BioRad, Hercules, CA) containing a nitrocellulose membrane and was allowed to pass through and attach to the membrane under gravity for 3–4 h at room temperature. The membrane was washed 1x with 500 μL TBS under vacuum, blocked with 1% BSA in TBST for 1 h, and then incubated overnight at 4 °C with the primary rabbit anti-hPSA antibody (Cell Signaling, Danvers, MA) diluted 1:1000 in TBST plus 1% BSA. Dot blots were washed 3x in 10 mL of TBST for 10 min, then incubated for 1 h with secondary goat anti-rabbit-IgG HRP conjugated antibody (Invitrogen, Carlsbad, CA) diluted 1:10,000 in TBST plus 1% Bovine Serum Albumin (BSA), washed 3x with 10 mL of TBST for 10 min, and then developed with Pierce ECL western blotting substrate. Images of ECL dot blots were acquired on an iBright 1500 imaging system and quantified by iBright image analysis software.

Row | Structure (SMILES) | IC50 (full length AR) | IC50 (AR-V7) | C4-2 cell supernatants PSA Dot Blot, relative to DMSO (100%) (PSA)
1 | Cc1ccccc1-c1cc(O)c2c(c1)CN(c1nccs1)CCO2 [S1–3] | 29.7 µM |  | 
2 | Cc1nsc(NC(=O)N2CCC(Sc3ccccc3C)CC2)n1 [S2–6] | 2 µM and 2.3 µM | 8 µM and 7.88 µM | 12.8%
3 | Cc1c(-c2ccccc2F)[nH]c2ccc(CNC(=O)CCc3cnccn3)cc12 [S3–12] | 7.7 µM | 8.17 µM | 
4 | CC(=O)NCCC(=O)NCc1ccc2[nH]c(-c3ccccc3F)c(C)c2c1 [S3–13] | 58.5 µM | 51.7 µM | 

Continued by falling IC50 (full length AR), values first:

Row | IC50 (full length AR) | IC50 (AR-V7) | Structure (SMILES) | C4-2 cell supernatants PSA Dot Blot, relative to DMSO (100%) (PSA)
5 | 17.1 µM | 33.5 µM | Cc1ccccc1-c1cc(O)c2c(c1)CN(c1nc(C(N)=O)cs1)CCO2 [S1–1] | 57.7%
6 | 10.8 µM | 43.9 µM | Cc1c(-c2ccccc2F)[nH]c2ccc(CNC(=O)c3ccc(CO)o3)cc12 [S3–14] | 
7 | 9 µM | 10.7 µM | Cc1c(-c2ccccc2F)[nH]c2ccc(CNC(=O)CCc3cn[nH]c3)cc12 [S3–11] | 25.5%
8 | 7 µM | 10.1 µM | Cc1c(-c2ccc(F)cc2)[nH]c2ccc(CNC(=O)c3ccc(CO)o3)cc12 [S3–15] | 
